Results reported in patent US20190091272A1, “ANTI-CANCER DRUG COMPOSITION INCLUDING GANODERMA EXTRACT AND AMPHOTERICIN B” (Taiwan Indigena Botanica Co., Ltd., priority 2015, published 2019).

Test system: human liver carcinoma cell lines including Hep G2, Hep 3G and Hep 5J
Assay: Summary of Examples 1 and 2 over the three liver carcinoma cell lines
Type: cell-based
Protocol: This example used human liver carcinoma cell lines including Hep G2, Hep 3G and Hep 5J for experiments, and the cells were cultured in 96-well plates. The experiments were divided into two groups including a pre-treatment group and a co-treatment group. The cells in the pre-treatment group were pre-treated with the Ganoderma ethanolic extracts for 24 hours and then treated with the amphotericin B for 48 hours, while the cells in the co-treatment group were co-treated with the Ganoderma ethanolic extracts and the amphotericin B together for 48 hours.
In the pre-treatment group, the cells were pre-treated with the Ganoderma ethanolic extracts at concentrations of 0, 1, 2.5 and 5 mg/ml for 24 hours, and then treated with the amphotericin B at concentrations between 0-80 μM for 48 hours, followed by MTT assay. In the co-treatment group, the cells were co-treated with the Ganoderma ethanolic extracts at concentrations of 0, 1, 2.5 and 5 mg/ml and the amphotericin B at concentrations between 0-80 μM for 48 hours, followed by MTT assay. The MTT solution (3-(4,5-Dimethylthiazol-2-yl)-2,5-diphenyltetrazolium bromide) was added to each well, and the plates were further incubated for 45-60 minutes. The cell culture medium was then removed and replaced by DMSO (dimethyl sulfoxide). Subsequently, the optical density (OD) was measured at 550 nm. […]

C[C@@H]1[C@H](O)[C@@H](C)/C=C/C=C/C=C/C=C/C=C/C=C/C=C/[C@H](O[C@@H]2O[C@H](C)[C@@H](O)[C@H](N)[C@@H]2O)C[C@@H]2O[C@](O)(C[C@@H](O)C[C@@H](O)[C@H](O)CC[C@@H](O)C[C@@H](O)CC(=O)O[C@H]1C)C[C@H](O)[C@H]2C(=O)O [amphotericin B]
effective dose of the amphotericin B (after pre-treatment with the Ganoderma ethanolic extract, from the examples): at least 3 μM
safe and effective dose of the amphotericin B (based on the results from Examples 1 and 2): 3 to 10 µM
